From patent US7576222B2, “Alkynyl-containing tryptophan derivative inhibitors of TACE/matrix metalloproteinase” (priority 2004, dated 2009) come the findings set out here.

The structures appear in SMILES notation.

In one assay the target is T1, catalytic domain of the recombinant TACE protein (Homo sapiens, UniProt P78536).
T1 construct: The catalytic domain of the recombinant TACE protein was expressed and purified; made in house
T1 sequence (P78536 223-474 limits assumed): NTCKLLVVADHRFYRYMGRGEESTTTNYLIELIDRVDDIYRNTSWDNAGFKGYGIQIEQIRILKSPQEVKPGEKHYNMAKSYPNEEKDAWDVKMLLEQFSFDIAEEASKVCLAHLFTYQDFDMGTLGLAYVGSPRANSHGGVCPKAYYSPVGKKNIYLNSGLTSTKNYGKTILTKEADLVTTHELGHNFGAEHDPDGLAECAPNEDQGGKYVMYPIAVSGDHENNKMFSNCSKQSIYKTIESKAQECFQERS
The experiment in a line: TACE FRET assay using TACE cat.
Details: not given
In kind it is biochemical. As for the experimental part:
TACE FRET Assay Using TACE Cat
“K” is the IC50. Generally, “n” and “B” are floated, noting that n (Hill slope) should be close to 1 and B (background offset) to 0.
Pro-TNF-α substrate peptide Abz-[…]-Dpa (AnaSpec, San Jose, Calif., WARC-1) was prepared as a 2 mM stock solution in the TACE assay buffer (50 mM Tris-HCl, pH 7.4, 25 mM NaCl, 4% Glycerol, 0.005% Brij 35). The catalytic domain of the recombinant TACE protein was expressed and purified. The TACE protein (1 ug/ml) was pretreated with the inhibitors at various concentrations for 10 min. at room temperature. The reaction was initiated by the addition of the substrate peptide. […] The initial rate (slope) of the reaction was determined using a fluorescence plate reader (Molecular Devices, Spectra Max Gemini XS).
For `CC#CCOc1ccc(S(=O)(=O)N[C@@H](Cc2c[nH]c3ccc(O)cc23)C(=O)O)cc1` [Example 5, N-{[4-(but-2-ynyloxy)phenyl]sulfonyl}-5-hydroxytryptophan], the IC50 (in general, the concentration that inhibits the measured activity by half) turned out to be 1610 nM.
Turning to `CC#CCOc1ccc(S(=O)(=O)N[C@@H](Cc2c(C)n(Cc3ccc(C)cc3)c3ccc(OC)cc23)C(=O)O)cc1` [Example 188, N-{[4-(but-2-ynyloxy)phenyl]sulfonyl}-5-methoxy-2-methyl-1-(4-methylbenzyl)tryptophan], the IC50 came out at 270 nM.

The assay is the same for the next values; noted with them: TACE FRET assay, Conc. 1 μM.
Turning to `CC#CCOc1ccc(S(=O)(=O)N[C@@H](Cc2cn(Cc3ccccc3OC)c3ccc(C(=O)O)cc23)C(=O)O)cc1` [Example 107], the “TACE Inhibition (%)” value is 7.34%.

Still in this assay, the particulars now being: read-out: TACE Inhibition (%).
Regarding `CC#CCOc1ccc(S(=O)(=O)N[C@@H](Cc2c(C)n(Cc3ccccc3)c3ccc(Cl)cc23)C(=O)O)cc1` [Example 88, 1-benzyl-N-{[4-(but-2-ynyloxy)phenyl]sulfonyl}-5-chloro-2-methyltryptophan], the inhibition (in general, the drop in the measured response relative to a control, in per cent) at 1 µM came to 62.8%.
The same measure, in the same setting: for `CC#CCOc1ccc(S(=O)(=O)N[C@@H](Cc2cn(CC(C)C)c3ccc(C#N)cc23)C(=O)O)cc1` [Example 143, N-{[4-(but-2-ynyloxy)phenyl]sulfonyl}-5-cyano-1-isobutyltryptophan] the value was 32.4%; for `CC#CCOc1ccc(S(=O)(=O)N[C@@H](Cc2cn(Cc3cccc(C(F)(F)F)c3)c3ccc(C(=O)O)cc23)C(=O)O)cc1` [Example 112, N-{[4-(but-2-ynyloxy)phenyl]sulfonyl}-5-carboxy-1-[3-(trifluoromethyl)benzyl]tryptophan], 5.51%.
As for `CC#CCOc1ccc(S(=O)(=O)N[C@@H](Cc2cn(CC(C)C)c3ccc(C(=O)O)cc23)C(=O)O)cc1` [Example 129, N-{[4-(but-2-ynyloxy)phenyl]sulfonyl}-5-carboxy-1-isobutyltryptophan], the inhibition at 1 µM is -4.96%.
Turning to `CC#CCOc1ccc(S(=O)(=O)N[C@@H](Cc2c(C)n(Cc3ccc(OC)cc3)c3ccccc23)C(=O)O)cc1` [Example 148, N-{[4-(but-2-ynyloxy)phenyl]sulfonyl}-1-(4-methoxybenzyl)-2-methyltryptophan], the inhibition at 1 µM was 44.1%.
`CC#CCOc1ccc(S(=O)(=O)N[C@@H](Cc2cn(Cc3cccc(OC)c3)c3ccc(C#N)cc23)C(=O)O)cc1` [Example 138, N-{[4-(but-2-ynyloxy)phenyl]sulfonyl}-5-cyano-1-(3-methoxybenzyl)tryptophan]: the inhibition at 1 µM worked out at 29.4%.
Turning to `CC#CCOc1ccc(S(=O)(=O)N[C@@H](Cc2cn(CCCCC)c3ccc(C(=O)O)cc23)C(=O)O)cc1` [Example 130, N-{[4-(but-2-ynyloxy)phenyl]sulfonyl}-5-carboxy-1-pentyltryptophan], the inhibition at 1 µM was -5.71%.
On to `CC#CCOc1ccc(S(=O)(=O)N[C@@H](Cc2cn(Cc3ccc(C(C)C)cc3)c3ccc(OC)cc23)C(=O)O)cc1` [Example 63, N-{[4-(but-2-ynyloxy)phenyl]sulfonyl}-1-(4-isopropylbenzyl)-5-methoxytryptophan], for which the inhibition at 1 µM stood at 28.2%.
The same measure, in the same setting: the same measure for `CC#CCOc1ccc(S(=O)(=O)N[C@@H](Cc2c(C)n(Cc3ccc(C(F)(F)F)cc3)c3ccc(OC)cc23)C(=O)O)cc1` [Example 195, N-{[4-(but-2-ynyloxy)phenyl]sulfonyl}-5-methoxy-2-methyl-1-[4-(trifluoromethyl)benzyl]tryptophan]: 78.3%; for `CC#CCOc1ccc(S(=O)(=O)N[C@@H](Cc2c(C)n(Cc3ccccc3F)c3ccccc23)C(=O)O)cc1` [Example 152, N-{[4-(but-2-ynyloxy)phenyl]sulfonyl}-1-(2-fluorobenzyl)-2-methyltryptophan]: 51.7%.
Regarding `CC#CCOc1ccc(S(=O)(=O)N[C@@H](Cc2cn(Cc3ccc(OC)cc3)c3ccc(OC)cc23)C(=O)O)cc1` [Example 53, N-{[4-(but-2-ynyloxy)phenyl]sulfonyl}-5-methoxy-1-(4-methoxybenzyl)tryptophan], the inhibition at 1 µM was found to be 30.6%.
In the case of `CC#CCOc1ccc(S(=O)(=O)N[C@@H](Cc2cn(CC3CCCCC3)c3ccc(C(=O)O)cc23)C(=O)O)cc1` [Example 132, N-{[4-(but-2-ynyloxy)phenyl]sulfonyl}-5-carboxy-1-(cyclohexylmethyl)tryptophan], the inhibition at 1 µM came out at 9.55%.
The same measure, in the same setting: the same measure for `CC#CCOc1ccc(S(=O)(=O)N[C@@H](Cc2c(C)n(Cc3ccccc3OC)c3ccc(OC)cc23)C(=O)O)cc1` [Example 189, N-{[4-(but-2-ynyloxy)phenyl]sulfonyl}-5-methoxy-1-(2-methoxybenzyl)-2-methyltryptophan]: 75.6%.
For `CC#CCOc1ccc(S(=O)(=O)N[C@@H](Cc2c(C)n(Cc3ccc4c(c3)OCO4)c3ccc(Cl)cc23)C(=O)O)cc1` [Example 100, 1-(1,3-benzodioxol-5-ylmethyl)-N-{[4-(but-2-ynyloxy)phenyl]sulfonyl}-5-chloro-2-methyltryptophan], the inhibition at 1 µM worked out at 55.6%.
Regarding `CC#CCOc1ccc(S(=O)(=O)N[C@@H](Cc2cn(Cc3cccc(F)c3)c3ccc(C(=O)O)cc23)C(=O)O)cc1` [Example 116, N-{[4-(but-2-ynyloxy)phenyl]sulfonyl}-5-carboxy-1-(3-fluorobenzyl)tryptophan], the inhibition at 1 µM is 9.72%.
Still for that read-out and setting: the same measure for `CC#CCOc1ccc(S(=O)(=O)N[C@@H](Cc2cn(Cc3ccc(C(C)C)cc3)c3ccc(C(=O)O)cc23)C(=O)O)cc1` [Example 120, N-{[4-(but-2-ynyloxy)phenyl]sulfonyl}-5-carboxy-1-(4-isopropylbenzyl)tryptophan]: 10%.
`CC#CCOc1ccc(S(=O)(=O)N[C@@H](Cc2c(C)n(CC)c3ccc(OC)cc23)C(=O)O)cc1` [Example 209, N-{[4-(but-2-ynyloxy)phenyl]sulfonyl}-1-ethyl-5-methoxy-2-methyltryptophan]: the inhibition at 1 µM was found to be 69.8%.
Regarding `CC#CCOc1ccc(S(=O)(=O)N[C@@H](Cc2cn(Cc3ccccc3)c3ccc(C(=O)O)cc23)C(=O)O)cc1` [Example 103, 1-benzyl-N-{[4-(but-2-ynyloxy)phenyl]sulfonyl}-5-carboxytryptophan], the inhibition at 1 µM worked out at 6.16%.
For the compound `CC#CCOc1ccc(S(=O)(=O)N[C@@H](Cc2c(C)n(Cc3ccc(C(C)C)cc3)c3ccccc23)C(=O)O)cc1` [Example 157, N-{[4-(but-2-ynyloxy)phenyl]sulfonyl}-1-(4-isopropylbenzyl)-2-methyltryptophan], the inhibition at 1 µM was 34.2%.
On the same count and under the same terms, the same measure for `CC#CCOc1ccc(S(=O)(=O)N[C@@H](Cc2c(C)n(CCCCC)c3ccc(OC)cc23)C(=O)O)cc1` [Example 211, N-{[4-(but-2-ynyloxy)phenyl]sulfonyl}-5-methoxy-2-methyl-1-pentyltryptophan]: 72.2%.
With `CC#CCOc1ccc(S(=O)(=O)N[C@@H](Cc2c(C)n(Cc3cccc(OC)c3)c3ccc(Cl)cc23)C(=O)O)cc1` [Example 90, N-{[4-(but-2-ynyloxy)phenyl]sulfonyl}-5-chloro-1-(3-methoxybenzyl)-2-methyltryptophan], the inhibition at 1 µM worked out at 65.2%.
On to `CC#CCOc1ccc(S(=O)(=O)N[C@@H](Cc2c(C)n(Cc3cc(F)cc(F)c3)c3ccccc23)C(=O)O)cc1` [Example 155, N-{[4-(but-2-ynyloxy)phenyl]sulfonyl}-1-(3,5-difluorobenzyl)-2-methyltryptophan], for which the inhibition at 1 µM came out at 54.3%.
